Test results reported in patent US9856220B2 (AbbVie Deutschland GmbH & Co. KG, priority 2011, dated 2018).

Biological target: PDE10A (Homo sapiens (Human), UniProt Q9Y233)
Assay: Measurement of PDE activity (recombinant PDE, cAMP HTRF)
Format: biochemical
Conditions: 20 nM cyclic nucleotide substrate, 60 minutes at 29 C
Method: a) Measurement of PDE Activity
The recombinant PDE proteins are used in in vitro enzymatic reaction for measurement of PDE activity. These recombinant proteins, including PDE10A (human, rat and mouse PDE10) and isoforms of PDEs 1, 3, 4, and 5, were purchased from commercial vendor BPS Bioscience. The enzymatic activity of PDEs was determined by cAMP measurement kit from CisBio (IBA) using HTRF technology.
The PDE enzymatic reaction was carried out in assay buffer (20 mM Tris-HCl pH7.5, 10 mM MgCl2, 0.1% bovine serum albumin) containing enzyme and substrate. […] The substrate cyclic nucleotide (cAMP or cGMP) concentration used in the assay was 20 nM for PDE10, and 100 nM for other PDEs. The inhibitory effect of compound was determined by incubating various concentration of inhibitor in the enzymatic assay. […] Next, the compound at varying concentration was mixed with PDE enzyme. The reaction was initiated by addition of cyclic nucleotide substrate, and incubated for 60 minutes at 29 C. The reaction was stopped by addition of lysis buffer from assay kit. The cAMP-d2 and anti-cAMP cryptate in the lysis buffer detected the level of cAMP left from the PDE hydrolysis reaction. […] Thus, IC50 value of inhibitor can be obtained by plotting inhibitor concentration against PDE activity at that concentration.

Sequence of PDE10A (Q9Y233 whole entry, species assumed): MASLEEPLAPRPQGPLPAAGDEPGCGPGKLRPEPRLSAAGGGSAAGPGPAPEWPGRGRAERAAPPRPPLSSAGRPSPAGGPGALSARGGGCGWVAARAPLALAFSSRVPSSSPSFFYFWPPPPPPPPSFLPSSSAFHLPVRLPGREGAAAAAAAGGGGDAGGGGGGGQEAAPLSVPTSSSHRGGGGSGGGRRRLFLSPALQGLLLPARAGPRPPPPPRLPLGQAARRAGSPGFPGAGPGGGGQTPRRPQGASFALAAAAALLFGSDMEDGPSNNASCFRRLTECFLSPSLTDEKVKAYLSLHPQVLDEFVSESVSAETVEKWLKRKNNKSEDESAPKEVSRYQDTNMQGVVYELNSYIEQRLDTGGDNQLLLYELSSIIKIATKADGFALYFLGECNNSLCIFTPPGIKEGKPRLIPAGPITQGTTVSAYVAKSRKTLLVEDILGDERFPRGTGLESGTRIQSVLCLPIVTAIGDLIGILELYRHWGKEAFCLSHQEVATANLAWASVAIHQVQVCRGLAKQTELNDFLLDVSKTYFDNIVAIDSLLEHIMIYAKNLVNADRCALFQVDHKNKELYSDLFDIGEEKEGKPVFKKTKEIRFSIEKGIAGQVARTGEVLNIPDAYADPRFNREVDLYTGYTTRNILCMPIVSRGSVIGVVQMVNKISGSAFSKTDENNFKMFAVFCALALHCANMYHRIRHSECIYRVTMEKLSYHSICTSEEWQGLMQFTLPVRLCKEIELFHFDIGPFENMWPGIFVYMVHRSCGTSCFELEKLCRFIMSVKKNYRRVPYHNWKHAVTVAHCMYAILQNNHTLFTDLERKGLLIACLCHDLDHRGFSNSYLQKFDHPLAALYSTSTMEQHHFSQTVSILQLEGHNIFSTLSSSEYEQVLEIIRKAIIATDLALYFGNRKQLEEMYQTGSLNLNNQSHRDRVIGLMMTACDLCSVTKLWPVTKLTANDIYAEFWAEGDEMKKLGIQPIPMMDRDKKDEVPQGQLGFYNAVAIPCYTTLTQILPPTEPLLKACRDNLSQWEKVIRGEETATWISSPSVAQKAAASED

| Structure (SMILES) | IC50 [nM] |
| --- | --- |
| CCn1cc(C(=O)NCc2ccc(C)cc2OC)c2cc(OC)c(OC)cc2c1=O [Example 308, 2-Ethyl-6,7-dimethoxy-N-(2-methoxy-4-methylbenzyl)-1-oxo-1,2-dihydroisoquinoline-4-carboxamide] | 200 to 500 |
| CCn1cc(C(=O)NCc2ccc(F)c(F)c2)c2cc(OC)c(OC)cc2c1=O [Example 36, 2-Ethyl-6,7-dimethoxy-1-oxo-1,2-dihydro-isoquinoline-4-carboxylic acid 3,4-difluoro-benzylamide] | 100 to 200 |
| CCn1cc(C(=O)NCc2ccc(C)cc2OCC2CC2)c2cc(OC)c(OC)cc2c1=O [Example 290, N-[[2-(Cyclopropylmethoxy)-4-methyl-phenyl]methyl]-2-ethyl-6,7-dimethoxy-1-oxo-isoquinoline-4-carboxamide] | 200 to 500 |
| CCn1cc(C(=O)Nc2ccccc2)c2cc(OC)c(OC)cc2c1=O [Example 151, 2-Ethyl-6,7-dimethoxy-1-oxo-N-phenyl-1,2-dihydroisoquinoline-4-carboxamide] | 200 to 500 |
| CCn1cc(C(=O)Nc2ccncc2)c2cc(OC)c(OC)cc2c1=O [Example 164, 2-Ethyl-6,7-dimethoxy-1-oxo-N-(pyridin-4-yl)-1,2-dihydroisoquinoline-4-carboxamide] | 200 to 500 |
| CCn1cc(C(=O)NCc2cccnc2)c2cc(OC)c(OC)cc2c1=O [Example 148, 2-Ethyl-6,7-dimethoxy-1-oxo-N-(pyridin-3-ylmethyl)-1,2-dihydroisoquinoline-4-carboxamide] | 200 to 500 |
| CCc1nc(CNC(=O)c2cn(C(CC)CC)c(=O)c3cc(OC)c(OC)cc23)cs1 [Example 255, N-((2-Ethylthiazol-4-yl)methyl)-6,7-dimethoxy-1-oxo-2-(pentan-3-yl)-1,2-dihydroisoquinoline-4-carboxamide] | 200 to 500 |
| CCn1cc(C(=O)NCc2ccc(C)cc2OCC2CCCO2)c2cc(OC)c(OC)cc2c1=O (stereo not drawn) [Example 305, 2-Ethyl-6,7-dimethoxy-N-(4-methyl-2-((tetrahydrofuran-2-yl)methoxy)benzyl)-1-oxo-1,2-dihydroisoquinoline-4-carboxamide] | 200 to 500 |
| CCCC(C)NC(=O)c1cn(CC)c(=O)c2cc(OC)c(OC)cc12 (stereo not drawn) [Example 15, 2-Ethyl-6,7-dimethoxy-1-oxo-1,2-dihydro-isoquinoline-4-carboxylic acid (1-methyl-butyl)-amide] | 200 to 500 |
| CCC(CC)n1cc(C(=O)NCc2ccc(C#N)o2)c2cc(OC)c(OC)cc2c1=O [Example 264, N-((5-Cyanofuran-2-yl)methyl)-6,7-dimethoxy-1-oxo-2-(pentan-3-yl)-1,2-dihydroisoquinoline-4-carboxamide] | 200 to 500 |
| CCC(CC)n1cc(C(=O)NC2CCc3ccc(C)cc32)c2cc(OC)c(OC)cc2c1=O (stereo not drawn) [Example 260, 6,7-Dimethoxy-N-(6-methyl-2,3-dihydro-1H-inden-1-yl)-1-oxo-2-(pentan-3-yl)-1,2-dihydroisoquinoline-4-carboxamide] | 100 to 200 |
| CCC(CC)n1cc(C(=O)NC2CCc3cc(F)ccc32)c2cc(OC)c(OC)cc2c1=O (stereo not drawn) [Example 252, N-(5-Fluoro-2,3-dihydro-1H-inden-1-yl)-6,7-dimethoxy-1-oxo-2-(pentan-3-yl)-1,2-dihydroisoquinoline-4-carboxamide] | 100 to 200 |
| CCn1cc(C(=O)NC2CCc3cc(C)ccc32)c2cc(OC)c(OC)cc2c1=O (stereo not drawn) [Example 175, 2-Ethyl-6,7-dimethoxy-N-(5-methyl-2,3-dihydro-1H-inden-1-yl)-1-oxo-1,2-dihydroisoquinoline-4-carboxamide] | 200 to 500 |
| CCn1cc(C(=O)NCc2ccccc2CN2CCOCC2)c2cc(OC)c(OC)cc2c1=O [Example 168, 2-Ethyl-6,7-dimethoxy-N-(2-(morpholinomethyl)benzyl)-1-oxo-1,2-dihydroiso-quinoline-4-carboxamide] | 200 to 500 |
| CCn1cc(C(=O)NCCC(C)(C)C)c2cc(OC)c(OC)cc2c1=O [Example 24, 2-Ethyl-6,7-dimethoxy-1-oxo-1,2-dihydro-isoquinoline-4-carboxylic acid (3,3-dimethyl-butyl)-amide] | 200 to 500 |
